# Measurements: ChEMBL document CHEMBL3885881, “DrugMatrix”
# Species on record: Rattus norvegicus
# Experiment: DrugMatrix - Regimen: Daily Repeat
# Assay type: toxicity, organism-based, Sprague-Dawley
# Design: regimen Daily Repeat, gender Male, age 6-8 weeks
# Conditions: in vivo, po, route oral GAVAGE, […]; for ABSOLUTE BASOPHIL / ABSOLUTE EOSINOPHIL / ABSOLUTE LYMPHOCYTE / ABSOLUTE MONOCYTE / ABSOLUTE SEGMENTED NEUTROPHIL / BASOPHIL / EOSINOPHIL / ERYTHROCYTE COUNT / HEMATOCRIT / HEMOGLOBIN / LEUKOCYTE COUNT / LYMPHOCYTE / MEAN CORPUSCULAR HEMOGLOBIN / MEAN CORPUSCULAR HEMOGLOBIN CONCENTRATION / MEAN CORPUSCULAR VOLUME / MONOCYTE / NEUTROPHIL / NUCLEATED RED BLOOD CELLS / PLATELET COUNT: tissue Blood; for ALANINE AMINOTRANSFERASE / ALKALINE PHOSPHATASE / ASPARTATE AMINOTRANSFERASE / BLOOD UREA NITROGEN / CARBON DIOXIDE / CHLORIDE / CHOLESTEROL / CREATINE PHOSPHOKINASE / CREATININE / GLUCOSE / LACTATE DEHYDROGENASE / LIPASE / PHOSPHORUS / POTASSIUM / SODIUM / TOTAL BILIRUBIN / TOTAL PROTEIN / URIC ACID / ALBUMIN: tissue Plasma
# [1] = 0 mg/kg, 72 h, dose level Control, time 3 day
# [2] = 0 mg/kg, 120 h, dose level Control, time 5 day
# [3] = 10 mg/kg, 72 h, dose level Low, time 3 day
# [4] = 10 mg/kg, 120 h, dose level Low, time 5 day
structure (smiles),measurement,setting,value
CC(=O)[C@H]1CC[C@H]2[C@@H]3CCC4=CC(=O)CC[C@]4(C)[C@H]3CC[C@]12C [PROGESTERONE],ABSOLUTE BASOPHIL,[1],0 CELLS/uL
same,ABSOLUTE EOSINOPHIL,[1],41.83 CELLS/uL
same,ABSOLUTE LYMPHOCYTE,[1],8545.5 CELLS/uL
same,ABSOLUTE MONOCYTE,[1],240 CELLS/uL
same,ABSOLUTE SEGMENTED NEUTROPHIL,[1],906 CELLS/uL
same,BASOPHIL,[1],0%
same,EOSINOPHIL,[1],0.33%
same,ERYTHROCYTE COUNT,[1],5.6 x10E6/uL
same,HEMATOCRIT,[1],35.4%
same,HEMOGLOBIN,[1],13.42 G/DL
same,LEUKOCYTE COUNT,[1],9.73 x10E3/uL
same,LYMPHOCYTE,[1],87.83%
same,MEAN CORPUSCULAR HEMOGLOBIN,[1],23.98 pg
same,MEAN CORPUSCULAR HEMOGLOBIN CONCENTRATION,[1],37.92 G/DL
same,MEAN CORPUSCULAR VOLUME,[1],63.3 fL
same,MONOCYTE,[1],2.5%
same,NEUTROPHIL,[1],9.33%
same,NUCLEATED RED BLOOD CELLS,[1],0 /100WBC
same,PLATELET COUNT,[1],1032 x10E3/uL
same,ALANINE AMINOTRANSFERASE,[1],72.83 u/L
same,ALKALINE PHOSPHATASE,[1],322.83 u/L
same,ASPARTATE AMINOTRANSFERASE,[1],102.67 u/L
same,BLOOD UREA NITROGEN,[1],12 mg/dL
same,CARBON DIOXIDE,[1],34.33 mmol/L
same,CHLORIDE,[1],97.67 MEQ/L
same,CHOLESTEROL,[1],82.5 mg/dL
same,CREATINE PHOSPHOKINASE,[1],410.33 u/L
same,CREATININE,[1],0.18 mg/dL
same,GLUCOSE,[1],164.5 mg/dL
same,LACTATE DEHYDROGENASE,[1],119.5 u/L
same,LIPASE,[1],11.83 u/L
same,PHOSPHORUS,[1],9.52 mg/dL
same,POTASSIUM,[1],5.56 MEQ/L
same,SODIUM,[1],142.48 MEQ/L
same,TOTAL BILIRUBIN,[1],0.18 mg/dL
same,TOTAL PROTEIN,[1],5.77 G/DL
same,URIC ACID,[1],0.48 mg/dL
same,ABSOLUTE BASOPHIL,[2],0 CELLS/uL
same,ABSOLUTE EOSINOPHIL,[2],0 CELLS/uL
same,ABSOLUTE LYMPHOCYTE,[2],9065 CELLS/uL
same,ABSOLUTE MONOCYTE,[2],341.33 CELLS/uL
same,ABSOLUTE SEGMENTED NEUTROPHIL,[2],527 CELLS/uL
same,BASOPHIL,[2],0%
same,EOSINOPHIL,[2],0%
same,ERYTHROCYTE COUNT,[2],5.25 x10E6/uL
same,HEMATOCRIT,[2],34.08%
same,HEMOGLOBIN,[2],13.5 G/DL
same,LEUKOCYTE COUNT,[2],9.93 x10E3/uL
same,LYMPHOCYTE,[2],91.17%
same,MEAN CORPUSCULAR HEMOGLOBIN,[2],25.7 pg
same,MEAN CORPUSCULAR HEMOGLOBIN CONCENTRATION,[2],39.62 G/DL
same,MEAN CORPUSCULAR VOLUME,[2],64.93 fL
same,MONOCYTE,[2],3.33%
same,NEUTROPHIL,[2],5.5%
same,NUCLEATED RED BLOOD CELLS,[2],0 /100WBC
same,PLATELET COUNT,[2],1077.5 x10E3/uL
same,ALANINE AMINOTRANSFERASE,[2],57.83 u/L
same,ALKALINE PHOSPHATASE,[2],319.17 u/L
same,ASPARTATE AMINOTRANSFERASE,[2],83.33 u/L
same,BLOOD UREA NITROGEN,[2],13.67 mg/dL
same,CARBON DIOXIDE,[2],30.83 mmol/L
same,CHLORIDE,[2],98.33 MEQ/L
same,CHOLESTEROL,[2],64.83 mg/dL
same,CREATINE PHOSPHOKINASE,[2],263.67 u/L
same,CREATININE,[2],0.2 mg/dL
same,GLUCOSE,[2],182.83 mg/dL
same,LACTATE DEHYDROGENASE,[2],124 u/L
same,LIPASE,[2],10.5 u/L
same,PHOSPHORUS,[2],10 mg/dL
same,POTASSIUM,[2],5.78 MEQ/L
same,SODIUM,[2],142.48 MEQ/L
same,TOTAL BILIRUBIN,[2],0.2 mg/dL
same,TOTAL PROTEIN,[2],6 G/DL
same,URIC ACID,[2],0.7 mg/dL
CN1CCN2c3ccccc3Cc3ccccc3C2C1 (stereo unspecified) [MIANSERIN],ABSOLUTE BASOPHIL,[3],0 CELLS/uL
same,ABSOLUTE EOSINOPHIL,[3],54.33 CELLS/uL
same,ABSOLUTE LYMPHOCYTE,[3],11772.33 CELLS/uL
same,ABSOLUTE MONOCYTE,[3],287.33 CELLS/uL
same,ABSOLUTE SEGMENTED NEUTROPHIL,[3],1319.33 CELLS/uL
same,BASOPHIL,[3],0%
same,EOSINOPHIL,[3],0.33%
same,HEMATOCRIT,[3],34.47%
same,HEMOGLOBIN,[3],13.1 G/DL
same,LEUKOCYTE COUNT,[3],13.43 x10E3/uL
same,LYMPHOCYTE,[3],88.33%
same,MEAN CORPUSCULAR HEMOGLOBIN,[3],23.57 pg
same,MEAN CORPUSCULAR HEMOGLOBIN CONCENTRATION,[3],38 G/DL
same,MEAN CORPUSCULAR VOLUME,[3],61.97 fL
same,MONOCYTE,[3],2%
same,NEUTROPHIL,[3],9.33%
same,NUCLEATED RED BLOOD CELLS,[3],0 /100WBC
same,PLATELET COUNT,[3],1172 x10E3/uL
same,ALANINE AMINOTRANSFERASE,[3],74.67 u/L
same,ALBUMIN,[3],4.4 G/DL
same,ALKALINE PHOSPHATASE,[3],433.33 u/L
same,ASPARTATE AMINOTRANSFERASE,[3],111 u/L
same,BLOOD UREA NITROGEN,[3],16.33 mg/dL
same,CARBON DIOXIDE,[3],20.67 mmol/L
same,CHLORIDE,[3],107 MEQ/L
same,CHOLESTEROL,[3],81 mg/dL
same,CREATINE PHOSPHOKINASE,[3],603 u/L
same,CREATININE,[3],0.28 mg/dL
same,GLUCOSE,[3],162.67 mg/dL
same,LIPASE,[3],12 u/L
same,PHOSPHORUS,[3],12.3 mg/dL
same,POTASSIUM,[3],6.52 MEQ/L
same,SODIUM,[3],150.33 MEQ/L
same,TOTAL BILIRUBIN,[3],0.27 mg/dL
same,TOTAL PROTEIN,[3],6.23 G/DL
same,URIC ACID,[3],1.93 mg/dL
same,ABSOLUTE BASOPHIL,[4],0 CELLS/uL
same,ABSOLUTE EOSINOPHIL,[4],0 CELLS/uL
same,ABSOLUTE LYMPHOCYTE,[4],13210.67 CELLS/uL
same,ABSOLUTE MONOCYTE,[4],71.33 CELLS/uL
same,ABSOLUTE SEGMENTED NEUTROPHIL,[4],1118 CELLS/uL
same,BASOPHIL,[4],0%
same,EOSINOPHIL,[4],0%
same,HEMATOCRIT,[4],37.27%
same,HEMOGLOBIN,[4],13.67 G/DL
same,LEUKOCYTE COUNT,[4],14.4 x10E3/uL
same,LYMPHOCYTE,[4],92%
same,MEAN CORPUSCULAR HEMOGLOBIN,[4],23.9 pg
same,MEAN CORPUSCULAR HEMOGLOBIN CONCENTRATION,[4],36.73 G/DL
same,MEAN CORPUSCULAR VOLUME,[4],65.03 fL
same,MONOCYTE,[4],0.33%
same,NEUTROPHIL,[4],7.67%
same,NUCLEATED RED BLOOD CELLS,[4],0 /100WBC
same,PLATELET COUNT,[4],1241.33 x10E3/uL
same,ALANINE AMINOTRANSFERASE,[4],77.67 u/L
same,ALBUMIN,[4],4.3 G/DL
same,ALKALINE PHOSPHATASE,[4],439.33 u/L
same,ASPARTATE AMINOTRANSFERASE,[4],87.33 u/L
same,BLOOD UREA NITROGEN,[4],16.67 mg/dL
same,CARBON DIOXIDE,[4],24.67 mmol/L
same,CHLORIDE,[4],105.33 MEQ/L
same,CHOLESTEROL,[4],62 mg/dL
same,CREATINE PHOSPHOKINASE,[4],238.33 u/L
same,CREATININE,[4],0.16 mg/dL
same,GLUCOSE,[4],176.33 mg/dL
same,LIPASE,[4],11 u/L
same,PHOSPHORUS,[4],13.77 mg/dL
same,POTASSIUM,[4],7.05 MEQ/L
same,SODIUM,[4],148.43 MEQ/L
same,TOTAL BILIRUBIN,[4],0.23 mg/dL
same,TOTAL PROTEIN,[4],6.13 G/DL
same,URIC ACID,[4],2.37 mg/dL
